Assay results reported in PubChem BioAssay AID1745844 (Carcinogenic Potency Database (CPDB), 2022).

Tested on: rodent lifetime carcinogenesis bioassay, tumor incidence TD50
Experiment: chronic cancer bioassays in animals – CPDB, compiled studies (AID 1745844)

With CNNCc1ccc(C(=O)NC(C)C)cc1 the TD50 (monkey, strain Cynomolgus [Macaca fascicularis], both sexes, several routes, site: all sites, lesion: acute nonlymphocytic leukemia, dosed 825 weeks, study length 980 weeks) was 14.8 mg/kg/day, the TD50 (monkey, strain Cynomolgus [Macaca fascicularis], both sexes, several routes, site: all sites, lesion: lymphocytic lymphoma, dosed 825 weeks, study length 980 weeks) was 21.1 mg/kg/day and the TD50 (monkey, strain Cynomolgus [Macaca fascicularis], both sexes, several routes, site: any site (literature study), lesion: malignant tumor, dosed 825 weeks, study length 980 weeks) was 1.73 mg/kg/day. The TD50 (monkey, strain Cynomolgus [Macaca fascicularis], both sexes, several routes, site: bone, lesion: osteosarcoma, dosed 825 weeks, study length 980 weeks) was 5.91 mg/kg/day, the TD50 (monkey, strain Cynomolgus [Macaca fascicularis], both sexes, several routes, site: brain, lesion: astrocytoma, dosed 825 weeks, study length 980 weeks) was 6.19 mg/kg/day and the TD50 (monkey, strain Cynomolgus [Macaca fascicularis], both sexes, several routes, site: kidney, lesion: hemangiosarcoma, dosed 825 weeks, study length 980 weeks) was 23.5 mg/kg/day. For the same molecule, the TD50 (monkey, strain Rhesus [Macaca mulatta], both sexes, several routes, site: all sites, lesion: acute nonlymphocytic leukemia, dosed 825 weeks, study length 1182 weeks) was 4.21 mg/kg/day, the TD50 (monkey, strain Rhesus [Macaca mulatta], both sexes, several routes, site: any site (literature study), lesion: malignant tumor, dosed 825 weeks, study length 1182 weeks) was 1.9 mg/kg/day and the TD50 (monkey, strain Rhesus [Macaca mulatta], both sexes, several routes, site: cecum, lesion: adenocarcinoma, dosed 825 weeks, study length 1182 weeks) was 5.16 mg/kg/day. The TD50 (monkey, strain Rhesus [Macaca mulatta], both sexes, several routes, site: humerus, lesion: osteosarcoma, dosed 825 weeks, study length 1182 weeks) was 32.7 mg/kg/day, the TD50 (monkey, strain Rhesus [Macaca mulatta], both sexes, several routes, site: kidney, lesion: hemangiosarcoma, dosed 825 weeks, study length 1182 weeks) was 39.6 mg/kg/day and the TD50 (mouse, strain B6C3F1, females, i.p., site: all sites + brain + lung + uterus, lesion: leukemia + lymphoma + olfactory neuroblastoma + alveolar/bronchiolar adenoma + adenocarcinoma, NOS, dosed 52 weeks, study length 85 weeks) was 0.194 mg/kg/day. The TD50 (mouse, strain B6C3F1, females, i.p., site: all sites, lesion: leukemia + lymphoma, dosed 52 weeks, study length 80 weeks) was 0.69 mg/kg/day, the TD50 (mouse, strain B6C3F1, females, i.p., site: all sites, lesion: leukemia + lymphoma, dosed 52 weeks, study length 85 weeks) was 0.758 mg/kg/day and the TD50 (mouse, strain B6C3F1, females, i.p., site: all sites, lesion: lymphoma, dosed 52 weeks, study length 80 weeks) was 0.855 mg/kg/day. The TD50 (mouse, strain B6C3F1, females, i.p., site: all sites, lesion: lymphoma, dosed 52 weeks, study length 85 weeks) was 0.908 mg/kg/day, the TD50 (mouse, strain B6C3F1, females, i.p., site: any site (literature study), lesion: several types, types named in the paper, dosed 52 weeks, study length 85 weeks) was 0.193 mg/kg/day and the TD50 (mouse, strain B6C3F1, females, i.p., site: brain, lesion: olfactory neuroblastoma, dosed 52 weeks, study length 80 weeks) was 5.62 mg/kg/day. The TD50 (mouse, strain B6C3F1, females, i.p., site: brain, lesion: olfactory neuroblastoma, dosed 52 weeks, study length 85 weeks) was 6.34 mg/kg/day, the TD50 (mouse, strain B6C3F1, females, i.p., site: lung, lesion: alveolar/bronchiolar adenoma + alveolar/bronchiolar carcinoma, dosed 52 weeks, study length 85 weeks) was 3.83 mg/kg/day and the TD50 (mouse, strain B6C3F1, females, i.p., site: lung, lesion: alveolar/bronchiolar adenoma, dosed 52 weeks, study length 80 weeks) was 3.39 mg/kg/day. For the same molecule, the TD50 (mouse, strain B6C3F1, females, i.p., site: lung, lesion: alveolar/bronchiolar adenoma, dosed 52 weeks, study length 85 weeks) was 3.83 mg/kg/day, the TD50 (mouse, strain B6C3F1, females, i.p., site: uterus, lesion: adenocarcinoma, NOS, dosed 52 weeks, study length 80 weeks) was 0.411 mg/kg/day and the TD50 (mouse, strain B6C3F1, females, i.p., site: uterus, lesion: adenocarcinoma, NOS, dosed 52 weeks, study length 85 weeks) was 0.253 mg/kg/day. It also gave a TD50 (mouse, strain B6C3F1, males, i.p., site: all sites + brain + lung, lesion: leukemia + lymphoma + olfactory neuroblastoma + undifferentiated carcinoma + alveolar/bronchiolar adenoma + alveolar/bronchiolar c, dosed 52 weeks, study length 85 weeks) of 0.511 mg/kg/day, a TD50 (mouse, strain B6C3F1, males, i.p., site: all sites, lesion: leukemia + lymphoma, dosed 52 weeks, study length 85 weeks) of 3.34 mg/kg/day and a TD50 (mouse, strain B6C3F1, males, i.p., site: any site (literature study), lesion: several types, types named in the paper, dosed 52 weeks, study length 85 weeks) of 0.464 mg/kg/day. The TD50 (mouse, strain B6C3F1, males, i.p., site: brain, lesion: olfactory neuroblastoma + undifferentiated carcinoma, dosed 52 weeks, study length 85 weeks) was 4.51 mg/kg/day, the TD50 (mouse, strain B6C3F1, males, i.p., site: brain, lesion: olfactory neuroblastoma, dosed 52 weeks, study length 85 weeks) was 5.19 mg/kg/day and the TD50 (mouse, strain B6C3F1, males, i.p., site: liver, lesion: hepatocellular adenoma + hepatocellular carcinoma + neoplastic nodule, dosed 52 weeks, study length 85 weeks) was 3.28 mg/kg/day. For the same molecule, the TD50 (mouse, strain B6C3F1, males, i.p., site: lung, lesion: alveolar/bronchiolar adenoma + alveolar/bronchiolar carcinoma, dosed 52 weeks, study length 85 weeks) was 0.623 mg/kg/day, the TD50 (mouse, strain B6C3F1, males, i.p., site: lung, lesion: alveolar/bronchiolar adenoma, dosed 52 weeks, study length 85 weeks) was 0.721 mg/kg/day and the TD50 (mouse, strain Swiss, females, i.p., site: all sites, lesion: leukemia, dosed 26 weeks, study length 76 weeks) was 3.72 mg/kg/day. The TD50 (mouse, strain Swiss, females, i.p., site: all sites, lesion: lymphosarcoma, dosed 26 weeks, study length 76 weeks) was 6.99 mg/kg/day, the TD50 (mouse, strain Swiss, females, i.p., site: any site (literature study), lesion: benign tumor, dosed 26 weeks, study length 76 weeks) was 27.8 mg/kg/day and the TD50 (mouse, strain Swiss, females, i.p., site: any site (literature study), lesion: malignant tumor, dosed 26 weeks, study length 76 weeks) was 0.391 mg/kg/day. The TD50 (mouse, strain Swiss, females, i.p., site: any site (literature study), lesion: several types, types named in the paper, dosed 26 weeks, study length 76 weeks) was 0.244 mg/kg/day, the TD50 (mouse, strain Swiss, females, i.p., site: lung, lesion: several types, types named in the paper, dosed 26 weeks, study length 76 weeks) was 1.05 mg/kg/day and the TD50 (mouse, strain Swiss, females, i.p., site: uterus, lesion: carcinoma, dosed 26 weeks, study length 76 weeks) was 5.75 mg/kg/day. It also gave a TD50 (mouse, strain Swiss, females, i.p., site: uterus, lesion: sarcoma, dosed 26 weeks, study length 76 weeks) of 6.11 mg/kg/day, a TD50 (mouse, strain Swiss, males, i.p., site: any site (literature study), lesion: benign tumor, dosed 26 weeks, study length 78 weeks) of 9.84 mg/kg/day and a TD50 (mouse, strain Swiss, males, i.p., site: any site (literature study), lesion: malignant tumor, dosed 26 weeks, study length 78 weeks) of 1.74 mg/kg/day. The TD50 (mouse, strain Swiss, males, i.p., site: any site (literature study), lesion: several types, types named in the paper, dosed 26 weeks, study length 78 weeks) was 1.15 mg/kg/day, the TD50 (mouse, strain Swiss, males, i.p., site: lung, lesion: several types, types named in the paper, dosed 26 weeks, study length 78 weeks) was 1.53 mg/kg/day and the TD50 (rat, strain BR 46, males, i.v., site: any site (literature study), lesion: malignant tumor, dosed 52 weeks, study length 104 weeks) was 3.93 mg/kg/day. For the same molecule, the TD50 (rat, strain BR 46, males, i.v., site: any site (literature study), lesion: several types, types named in the paper, dosed 52 weeks, study length 104 weeks) was 4.01 mg/kg/day, the TD50 (rat, strain Sprague-Dawley, females, i.p., site: all sites + brain + cerebrum + mammary gland, lesion: lymphoma + olfactory neuroblastoma + mucinous adenocarcinoma + adenocarcinoma, NOS + adenoma, NOS, dosed 26 weeks, study length 86 weeks) was 0.337 mg/kg/day and the TD50 (rat, strain Sprague-Dawley, females, i.p., site: all sites, lesion: lymphoma, dosed 26 weeks, study length 80 weeks) was 4.48 mg/kg/day. For the same molecule, the TD50 (rat, strain Sprague-Dawley, females, i.p., site: all sites, lesion: lymphoma, dosed 26 weeks, study length 86 weeks) was 5.18 mg/kg/day, the TD50 (rat, strain Sprague-Dawley, females, i.p., site: any site (literature study), lesion: several types, types named in the paper, dosed 26 weeks, study length 86 weeks) was 0.329 mg/kg/day and the TD50 (rat, strain Sprague-Dawley, females, i.p., site: brain + cerebrum, lesion: olfactory neuroblastoma + mucinous adenocarcinoma, dosed 26 weeks, study length 80 weeks) was 0.36 mg/kg/day. It also gave a TD50 (rat, strain Sprague-Dawley, females, i.p., site: brain + cerebrum, lesion: olfactory neuroblastoma + mucinous adenocarcinoma, dosed 26 weeks, study length 86 weeks) of 0.416 mg/kg/day, a TD50 (rat, strain Sprague-Dawley, females, i.p., site: brain, lesion: olfactory neuroblastoma, dosed 26 weeks, study length 80 weeks) of 0.361 mg/kg/day and a TD50 (rat, strain Sprague-Dawley, females, i.p., site: brain, lesion: olfactory neuroblastoma, dosed 26 weeks, study length 86 weeks) of 0.418 mg/kg/day. For the same molecule, the TD50 (rat, strain Sprague-Dawley, females, i.p., site: mammary gland, lesion: adenocarcinoma, NOS + adenoma, NOS, dosed 26 weeks, study length 80 weeks) was 0.396 mg/kg/day, the TD50 (rat, strain Sprague-Dawley, females, i.p., site: mammary gland, lesion: adenocarcinoma, NOS + adenoma, NOS, dosed 26 weeks, study length 86 weeks) was 0.458 mg/kg/day and the TD50 (rat, strain Sprague-Dawley, females, i.p., site: mammary gland, lesion: adenocarcinoma, NOS, dosed 26 weeks, study length 80 weeks) was 0.397 mg/kg/day. The TD50 (rat, strain Sprague-Dawley, females, i.p., site: mammary gland, lesion: adenocarcinoma, NOS, dosed 26 weeks, study length 86 weeks) was 0.459 mg/kg/day, the TD50 (rat, strain Sprague-Dawley, males, i.p., site: all sites + brain + mammary gland + olfactory bulb, lesion: leukemia + lymphoma + carcinoma, NOS + olfactory neuroblastoma + adenocarcinoma, NOS + adenoma, NOS, dosed 26 weeks, study length 61 weeks) was 0.284 mg/kg/day and the TD50 (rat, strain Sprague-Dawley, males, i.p., site: all sites, lesion: leukemia + lymphoma, dosed 26 weeks, study length 61 weeks) was 2.1 mg/kg/day. It also gave a TD50 (rat, strain Sprague-Dawley, males, i.p., site: all sites, lesion: leukemia, dosed 26 weeks, study length 61 weeks) of 13.3 mg/kg/day, a TD50 (rat, strain Sprague-Dawley, males, i.p., site: all sites, lesion: lymphoma, dosed 26 weeks, study length 61 weeks) of 2.51 mg/kg/day and a TD50 (rat, strain Sprague-Dawley, males, i.p., site: any site (literature study), lesion: several types, types named in the paper, dosed 26 weeks, study length 61 weeks) of 0.186 mg/kg/day. It also gave a TD50 (rat, strain Sprague-Dawley, males, i.p., site: brain + olfactory bulb, lesion: carcinoma, NOS + olfactory neuroblastoma + adenocarcinoma, NOS, dosed 26 weeks, study length 61 weeks) of 0.343 mg/kg/day, a TD50 (rat, strain Sprague-Dawley, males, i.p., site: mammary gland, lesion: adenocarcinoma, NOS + adenoma, NOS, dosed 26 weeks, study length 61 weeks) of 4.5 mg/kg/day and a TD50 (rat, strain Sprague-Dawley, males, i.p., site: mammary gland, lesion: adenocarcinoma, NOS, dosed 26 weeks, study length 61 weeks) of 4.85 mg/kg/day. It also gave a TD50 (rat, strain Sprague-Dawley, males, i.p., site: olfactory bulb, lesion: adenocarcinoma, NOS, dosed 26 weeks, study length 61 weeks) of 4.67 mg/kg/day.

Molecule Nc1nc(/C=C/c2ccc([N+](=O)[O-])o2)no1 has a TD50 (mouse, strain Charles River CD1, females, in feed, site: forestomach, lesion: squamous-cell carcinoma, dosed 31 weeks, study length 75 weeks) of 105 mg/kg/day, a TD50 (mouse, strain Charles River CD1, females, in feed, site: forestomach, lesion: squamous-cell papilloma, dosed 31 weeks, study length 75 weeks) of 1150 mg/kg/day and a TD50 (mouse, strain Charles River CD1, females, in feed, site: lung, lesion: adenoma, dosed 31 weeks, study length 75 weeks) of 1010 mg/kg/day. For the same molecule, the carcinogen call (mouse, strain Charles River CD1, females, in feed, site: reticuloendothelium, lesion: several types, types named in the paper, dosed 31 weeks, study length 75 weeks) was “positive”, the TD50 (mouse, strain Charles River CD1, females, in feed, site: thymus gland, lesion: lymphoma, dosed 31 weeks, study length 75 weeks) was 262 mg/kg/day and the TD50 (mouse, strain Charles River CD1, males, in feed, site: any site (literature study), lesion: several types, types named in the paper, dosed 38 weeks, study length 75 weeks) was 29.2 mg/kg/day. The TD50 (mouse, strain Charles River CD1, males, in feed, site: forestomach, lesion: squamous-cell carcinoma, dosed 38 weeks, study length 75 weeks) was 130 mg/kg/day, the TD50 (mouse, strain Charles River CD1, males, in feed, site: forestomach, lesion: squamous-cell papilloma, dosed 38 weeks, study length 75 weeks) was 514 mg/kg/day and the TD50 (mouse, strain Charles River CD1, males, in feed, site: reticuloendothelium, lesion: several types, types named in the paper, dosed 38 weeks, study length 75 weeks) was 492 mg/kg/day. The TD50 (mouse, strain Charles River CD1, males, in feed, site: thymus gland, lesion: lymphoma, dosed 38 weeks, study length 75 weeks) was 121 mg/kg/day.
